How the values were obtained:
[1] = hyperlipemia from ethanol (Table V); type: in vivo, Sprague-Dawley male rat; settings: gastric intubation; for cholesterolemia: ethyl alcohol 10% 1 week (controls 85±6, ethanol 90±4); for Triglyceridemia ±SE: ethyl alcohol 10% 1 week (controls 87±14, ethanol 238±44)
Method: Sprague-Dawley male rat of the average weight of 150 g. ethyl alcohol 10%
in water for 1 week (in parenthesis, the N. of animals). The substances
have been administered by gastric intubation at the dose of 200 and 300
mg/kg/day. In experiments of subchronic toxicity, the diethylamide of […]

[2] = hypertriglyceridemia from Fructose (Table II); type: in vivo, Sprague-Dawley male rat; settings: 200 mg/kg day by gastric probing, 5 days
Method: *Animal: Sprague-Dawley male rat, 150 g.; 6 rat sets. Treatment accordin
to E. A. Nikkila et al., Life sci.5,89,1966; substances administered at
the dose of 200 mg/kg day by gastric probing in two daily administrations

[3] = hypertriglyceridemia from ethanol (Table IV); type: in vivo, Sprague-Dawley male rat; settings: 300 mg/kg daily, gastric intubation; ethanol twice a day, 4 days (controls 74.20±3.70, ethanol 135.80±13.30)
Method: | *Animal: Sprague-Dawley male rat of the average weight of 150 g. | Treatment: 0.31 ml. ethanol in 4 ml. water twice a day (in parenthesis, | the N. of animals) for 4 days. The substances have been provided by | gastric intubation at the daily dose of 300 mg/kg.

[4] = toxicity in the test animal; settings: in vivo
[5] = hyperlipemia from diet (Table III); type: in vivo, Sprague-Dawley male rat; settings: 200 mg/kg/day per os; for Hepatic Cholesterol ± SE: hyperlipidic diet 4 weeks (diet alone 16.4±0.8); for Hepatic triglycerides ± SE: hyperlipidic diet 4 weeks (diet alone 56.4+3.8); for Triglyceridemia ± ES: hyperlipidic diet 4 weeks (diet alone 117.3±17.7); for Cholesterolemia ± SE: hyperlipidic diet 4 weeks (diet alone 129.9±9.3)
Description: °In parentheses, significativity towards the set treated only with
*Animal: Sprague-Dawley male rat of the initial weight of 120 g (in
parentheses the N. of animals).
Treatment: Hyperlipemia derived from hyperlipidic diet according to Nath N. et al., Nutrition J. 67, 289, 1959; the diet has been administered for 4 weeks. Each drug has been administered at the dose of 200/mg/kg/day per os for 4 weeks.

[6] = experiments of subchronic toxicity; type: in vivo; settings: per os, 150 mg/kg/day and 300 mg/kg/day, 3 or 6 months
Method: mg/kg/day. In experiments of subchronic toxicity, the diethylamide of
the doses of 150 mg/kg/day and of 300 mg/kg/day for 3 or 6 months: the […]

in vivo = settings: rat, po, read-out: LD 50 per os in the rat
[7] = former works (U.S. Pat. No. 3,231,469; Canonica et al.); cited from earlier work
[8] = 3rd experiment (controls 77.1±12.1, fructose 155.2±19.2)
[9] = 2nd experiment (controls 45.6±4.7, fructose 94.0±12.1)
[10] = 4th experiment (controls 45.3±4.5, fructose 87.4±14.4)
[11] = 1st experiment (controls 41.7±1.7, fructose 62.9±5.5)

Row | Structure (SMILES) | Triglyceridemia ±SE [2, 8] | Triglyceridemia ±SE [3] | Hepatic Cholesterol ± SE [5] | Hepatic triglycerides ± SE [5] | Triglyceridemia ± ES [5] | Cholesterolemia ± SE [5] | Triglyceridemia ±SE [2, 9] | LD50 (in vivo) | Triglyceridemia ±SE [2, 10] | Triglyceridemia ±SE [2, 11] | also measured
1 | CCN(CC)C(=O)C/C(C)=C/c1ccccc1 [IIId, Diethylamide of 3-methyl-4-phenyl-3-butenoic acid] | 87.1±13.4 mg/100 ml | 90.0±14.83 mg/100 ml | 19.4±0.7 mg/g fresh tissue | 25.9±3.8 mg/g fresh tissue | 77.4±7.5 mg/100 ml | 124.9±4.6 mg/100 ml |  |  |  |  | cholesterolemia ([1]; 200 mg/kg/day): 77±3 mg/100 ml; Triglyceridemia ±SE ([1]; 200 mg/kg/day): 169±20 mg/100 ml; cholesterolemia ([1]; 300 mg/kg/day): 81±3 mg/100 ml; Triglyceridemia ±SE ([1]; 300 mg/kg/day): 117±20 mg/100 ml; toxicity in the test animal [4]: low toxicity; tolerability in subchronic toxicity [6]: fairly well tolerated
2 | C/C(=C\c1ccccc1)CC(=O)NC1CCCCC1 [IIIb, Monocyclohexylamide of 3-methyl-4-phenyl-3-butenoic acid] |  |  | 22.1±1.1 mg/g fresh tissue | 37.5±3.0 mg/g fresh tissue | 81.5±7.9 mg/100 ml | 135.7±11.6 mg/100 ml | 59.1±7.5 mg/100 ml | 3000 mg/kg |  |  | 
3 | C/C(=C\c1ccccc1)CC(=O)N(CCO)CCO [IIIc, Diethanolamide of 3-methyl-4-phenyl-3-butenoic acid] |  |  |  |  |  |  | 69.6±3.9 mg/100 ml | 1500 mg/kg |  |  | 
4 | C/C(=C\c1ccccc1)CC(=O)N1CCOCC1 [IIIe, Morpholide of 3-methyl-4-phenyl-3-butenoic acid] |  |  |  |  |  |  |  | 1000 mg/kg | 61.1±5.1 mg/100 ml |  | 
5 | C/C(=C\c1ccccc1)CC(N)=O [II] |  |  |  |  |  |  |  |  |  |  | hypolipemic characteristics [7]: interesting hypolipemic characteristics
6 | CCOC(=O)C(C)(C)Oc1ccc(Cl)cc1 [chlofibrate, ethyl ester of 2-(p-chlorophenoxy)-2-methyl propanoic acid, reference compound] | 62.9±7.2 mg/100 ml | 121.50±12.26 mg/100 ml | 18.5±1 mg/g fresh tissue | 30.3±2.5 mg/g fresh tissue | 60.0±4.3 mg/100 ml | 138.8±10.7 mg/100 ml | 48.9±2.4 mg/100 ml |  | 59.1±3.6 mg/100 ml | 42.2±5.4 mg/100 ml | cholesterolemia ([1]; 200 mg/kg/day): 70±3 mg/100 ml; Triglyceridemia ±SE ([1]; 200 mg/kg/day): 183±29 mg/100 ml
7 | C/C(=C\c1ccccc1)CC(=O)NCCO [IIIa, Monoethanolamide of 3-methyl-4-phenyl-3-butenoic acid] |  |  |  |  |  |  |  |  |  | 62.9±6.4 mg/100 ml | 
8 | C/C(=C\c1ccccc1)CC(=O)O [I, 3-methyl-4-phenyl-3-butenoic acid] | 100.8±13.8 mg/100 ml | 275.11±31.63 mg/100 ml | 20.2±0.9 mg/g fresh tissue | 37.7±5.6 mg/g fresh tissue | 91.5±13.6 mg/100 ml | 142.4±7.7 mg/100 ml | 40.8±4.5 mg/100 ml |  | 57.6±2.6 mg/100 ml | 42.8±3.7 mg/100 ml | hypolipemic characteristics [7]: interesting hypolipemic characteristics
